The results in this text go back to patent publication US20240261418A1, “SOS1 DEGRADING AGENT AND PREPARATION METHOD THEREFOR AND APPLICATION THEREOF” (SHANGHAI LEADINGTAC PHARMACEUTICAL CO. LTD., priority 2021, published 2024).

pIC50: −log10 of the molar value.

One experiment addresses T1, KRAS-G12C/SOS1 (Homo sapiens, UniProt Q07889).
T1 construct: purchased Cisbio 63ADK000CB16PEG
T1 sequence (Q07889 1-1333): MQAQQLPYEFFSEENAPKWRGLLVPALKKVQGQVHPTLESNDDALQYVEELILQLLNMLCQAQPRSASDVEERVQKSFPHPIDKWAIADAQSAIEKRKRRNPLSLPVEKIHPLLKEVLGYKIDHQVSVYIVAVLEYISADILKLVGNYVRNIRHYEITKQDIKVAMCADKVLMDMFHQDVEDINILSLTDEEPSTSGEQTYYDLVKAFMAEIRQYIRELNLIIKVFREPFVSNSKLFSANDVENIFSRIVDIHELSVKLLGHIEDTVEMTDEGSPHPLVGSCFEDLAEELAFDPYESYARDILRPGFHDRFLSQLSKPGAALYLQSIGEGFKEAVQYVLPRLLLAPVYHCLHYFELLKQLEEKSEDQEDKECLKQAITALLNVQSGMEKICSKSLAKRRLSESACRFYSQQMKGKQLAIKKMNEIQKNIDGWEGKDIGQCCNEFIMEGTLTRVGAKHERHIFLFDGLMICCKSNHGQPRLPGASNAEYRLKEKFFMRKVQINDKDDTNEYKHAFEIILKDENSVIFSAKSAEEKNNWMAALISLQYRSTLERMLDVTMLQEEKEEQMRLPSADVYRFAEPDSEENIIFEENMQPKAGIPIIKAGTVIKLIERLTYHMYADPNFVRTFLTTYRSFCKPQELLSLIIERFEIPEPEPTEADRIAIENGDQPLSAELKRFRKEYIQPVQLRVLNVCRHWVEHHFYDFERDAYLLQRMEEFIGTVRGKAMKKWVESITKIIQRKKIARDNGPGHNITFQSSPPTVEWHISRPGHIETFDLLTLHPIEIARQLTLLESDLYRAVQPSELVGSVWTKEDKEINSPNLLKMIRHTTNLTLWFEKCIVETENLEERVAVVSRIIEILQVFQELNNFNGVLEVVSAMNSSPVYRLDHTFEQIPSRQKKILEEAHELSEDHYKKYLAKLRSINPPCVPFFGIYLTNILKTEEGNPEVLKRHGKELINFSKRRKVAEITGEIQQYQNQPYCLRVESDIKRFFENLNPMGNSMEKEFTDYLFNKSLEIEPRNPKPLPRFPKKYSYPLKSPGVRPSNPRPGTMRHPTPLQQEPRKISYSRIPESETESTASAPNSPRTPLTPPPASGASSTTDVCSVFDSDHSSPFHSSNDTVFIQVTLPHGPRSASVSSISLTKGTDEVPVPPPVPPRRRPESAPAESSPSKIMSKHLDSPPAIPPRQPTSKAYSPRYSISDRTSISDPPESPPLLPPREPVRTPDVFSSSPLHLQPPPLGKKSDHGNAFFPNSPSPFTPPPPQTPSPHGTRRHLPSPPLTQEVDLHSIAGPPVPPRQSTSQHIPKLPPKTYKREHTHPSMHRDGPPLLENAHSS
The experiment in a line: KRAS-G12C/SOS1 binding assay (HTRF). The conditions noted are these: inhibition of KRAS-G12C/SOS1 binding. On the procedure:
Test Example 1: KRAS-G12C/SOS1 Binding Assay
The following method was used to determine the extent of inhibition of KRAS-G12C/SOS1 binding by the preferred compounds of the present invention under in vitro conditions. In this method, the competitive inhibition of KRAS-G12C/SOS1 binding by the preferred compounds was assayed by the homogeneous time-resolved fluorescence (HTRF) technology using the KRAS-G12C/SOS1 binding assay kit (Cisbio, 63ADK000CB16PEG).
The experimental procedures were as follows (refer to the kit instructions for details): the compounds of the present invention were each firstly dissolved in DMSO at a concentration of 20 mM, and then diluted in an equal gradient with a buffer in the kit, so that the final concentrations of the test compounds in the reaction system were in a range of 10000 nM-0.04 nM, and the final concentration of DMSO was 0.5%. 2 μL of the compounds were each incubated with 4 μL of 1×Tag1-SOS1, 4 μL of 1×Tag2-KRAS-G12C (containing 10 μM guanosine triphosphate, GTP) at 25° C. for 15 min. Then 5 μL of 1×Anti-Tag1-Tb3+ and 5 μL of 1×Anti-Tag2-XL665 were added to the reaction system, and the mixture was incubated on ice for 3 h. After the incubation, the fluorescence intensity of each well was measured at the excitation wavelength of 337 nm, the fluorescence intensity of each well was read at the emission wavelengths of 620 nm and 665 nm on a microplate reader EnVision (PerkinElmer, 2105) in an HTRF mode, and the Ratio value was calculated by the formula Ratio=(665 nm/620 nm)×[…]. The inhibition rates of the compounds at each concentration were calculated by comparing the fluorescence intensity ratio with that of the control group, and then nonlinear curve fitting was performed by GraphPad Prism 8 in the logarithmic concentration-inhibition rate to obtain the IC50 values of the compounds, as shown in Table 1.
A general note: In TR-FRET formats the signal depends on donor and acceptor labels being close together.

A further experiment concerns the target T2, SOS1 protein (Homo sapiens, UniProt Q07889).
T2 sequence (Q07889 1-1333): T1 sequence (Q07889 1-1333)
The experiment in a line: SOS1 degradation assay (Western blot) in NCI-H358 cells. The experiment is classed as cell-based. The conditions noted are these: NCI-H358 (KRAS G12C), 24 h. On the procedure:
The specific procedures were as follows:
0.95 mL of cells were seeded into each well of a 24-well cell culture plate to achieve a cell density of 5×10^5 cells/well; the cell plate was incubated in an incubator at 37° C. with 5% CO2 overnight. Then 50 μL of the compound solution after dilution was added to each of the wells with the corresponding cells, so that the final concentration of the compound was in a range of 0.03-3000 nM.
After dosing, the cell plate was incubated in an incubator at 37° C. with 5% CO2 for 24 h. […] After the plate was left to stand on ice for 30 min, the protein lysate in each well was transferred to a 1.5 mL centrifuge tube and centrifuged at 15000 g for 20 min at 4° C. The cell lysate supernatant after centrifugation was cryopreserved at −80° C. for testing and was used for determining the degradation level of the SOS1 protein by a WB method. The concentration of total protein in the cell lysate supernatant was determined using the BCA Protein Quantification Kit (Tiangen, PA115-02).
The concentration of total protein in the cell lysate was determined by BCA. The total protein was adjusted to 0.5 μg/μL with PBS and 5×SDS- PAGE protein loading buffer (Beyotime, P001L), incubated in a water bath at 100° C. for 15 min, incubated in an ice bath on ice for 5 min, centrifuged at 14000 g for 1 min at 4° C., and mixed well as a loading sample for WB. Protein electrophoresis was performed on a precast gel (KeyGEN, KGMG010W15) with a loading volume of 10 μL (total protein: 5 μg) using a Tris-MOPS-SDS running solution (Adamas, P1598253) at a constant voltage of 120 V for 55 min. After the electrophoresis, the protein on the gel strip was transferred to a PVDF membrane at a constant current of 250 mA for 65 min. After the membrane transfer, the membrane was incubated in 1× QuickBlock blocking buffer (Beyotime, P0235) for 30 min at room temperature. […] The protein map was subjected to gray value analysis by the chemiluminescence imaging system from Clinx. […] Then the degradation rate was calculated by comparing the gray correction value with the gray correction value of the control group. Then nonlinear curve fitting was performed by GraphPad Prism 8 in the logarithmic concentration-inhibition rate to obtain the DC50 and Dmax values of the compounds.

For the molecule `COc1cc2nc(C)nc(N[C@H](C)c3cc(-c4ccccc4CN(C)C)cs3)c2cc1[C@H]1CC[C@H](C(=O)N2CCN(CC3CCC4(CC3)CCN(C(=O)c3ccc(Cl)c(N5CCC(=O)NC5=O)c3)CC4)CC2)CC1` [Example 4, 1-(2-chloro-5-(9-((4-((1R,4R)-4-(4-(((R)-1-(4-(2-((dimethylamino)methyl)phenyl)thien-2-yl)ethyl)amino)-7-methoxy-2-methylquinazolin-6-yl)cyclohexane-1-carbonyl)piperazin-1-yl)methyl)-3-azaspiro[5.5]undecane-3-carbonyl)phenyl)dihydropyrimidine-2,4(1H,3H)-dione], at KRAS-G12C/SOS1, the pIC50 – broadly, the IC50 on a negative log10 scale, so that one unit is a factor of ten – was not below 7.82. Besides, at SOS1 protein, the 50% degradation concentration (DC50) (in general, the midpoint of the concentration-degradation curve) fell in the range of 50 to 100 nM and the Dmax (commonly the largest share of the target that was removed) was in the range of 80 to 100%.
